In ChEMBL document CHEMBL2311450, “Synthesis and antibacterial evaluation of novel 11,4″-disubstituted azithromycin analogs with greatly improved activity against erythromycin-resistant bacteria” (2013):
≈ marks a conversion by molar mass, not a printed value.

Key:
Salmonella typhimurium [1] = assay: Antibacterial activity against Salmonella typhimurium TA102 by broth microdilution method; assay type: functional, Salmonella enterica subsp. enterica serovar Typhimurium; conditions: Salmonella enterica
Salmonella typhimurium [2] = assay: Antibacterial activity against Salmonella typhimurium TA98 by broth microdilution method; assay type: functional, Salmonella enterica subsp. enterica serovar Typhimurium; conditions: Salmonella enterica
Streptococcus pyogenes [3] = assay: Antibacterial activity against erythromycin-resistant Streptococcus pyogenes RE clinical isolate by broth microdilution method; assay type: functional
Streptococcus pyogenes [4] = assay: Antibacterial activity against erythromycin-susceptible Streptococcus pyogenes by broth microdilution method; assay type: functional
Staphylococcus aureus [5] = assay: Antibacterial activity against methicillin-susceptible Staphylococcus aureus ATCC 29213 by broth microdilution method; assay type: functional
Staphylococcus aureus [6] = assay: Antibacterial activity against penicillin-resistant Staphylococcus aureus clinical isolate by broth microdilution method; assay type: functional
Staphylococcus aureus [7] = assay: Antibacterial activity against erythromycin-susceptible Staphylococcus aureus ATCC 25923 by broth microdilution method; assay type: functional
Streptococcus pneumoniae [8] = assay: Antibacterial activity against erythromycin-resistant Streptococcus pneumoniae AB11 expressing erm and mef genes by broth microdilution method; assay type: functional
Streptococcus pneumoniae [9] = assay: Antibacterial activity against erythromycin-resistant Streptococcus pneumoniae A22072 expressing mef gene by broth microdilution method; assay type: functional
Streptococcus pneumoniae [10] = assay: Antibacterial activity against erythromycin-resistant Streptococcus pneumoniae B1 expressing erm gene by broth microdilution method; assay type: functional
Streptococcus pneumoniae [11] = assay: Antibacterial activity against erythromycin-susceptible Streptococcus pneumoniae ATCC 49619 by broth microdilution method; assay type: functional

Row | Structure (SMILES) | MIC (Salmonella typhimurium [1]) | MIC (Salmonella typhimurium [2]) | MIC (Streptococcus pyogenes [3]) | MIC (Streptococcus pyogenes [4]) | MIC (Staphylococcus aureus [5]) | MIC (Staphylococcus aureus [6]) | MIC (Staphylococcus aureus [7]) | MIC (Streptococcus pneumoniae [8]) | MIC (Streptococcus pneumoniae [9]) | MIC (Streptococcus pneumoniae [10]) | MIC (Streptococcus pneumoniae [11])
1 | CC[C@H]1OC(=O)[C@H](C)[C@@H](O[C@H]2C[C@@](C)(OC)[C@@H](OC(=O)NCCCCNC(=O)c3ccc(OC)cc3)[C@H](C)O2)[C@H](C)[C@@H](O[C@@H]2O[C@H](C)C[C@H](N(C)C)[C@H]2O)[C@](C)(O)C[C@@H](C)CN(C)[C@H](C)[C@@H](OC(=O)NCc2ccc(C)c(C)c2)[C@]1(C)O | 1 mg/L (≈ 0.863 µM) | 8 mg/L (≈ 6.91 µM) | 64 mg/L (≈ 55.2 µM) | 16 mg/L (≈ 13.8 µM) | 8 mg/L (≈ 6.91 µM) | 4 mg/L (≈ 3.45 µM) | 1 mg/L (≈ 0.863 µM) | 16 mg/L (≈ 13.8 µM) | 0.5 mg/L (≈ 0.432 µM) | 4 mg/L (≈ 3.45 µM) | 0.12 mg/L (≈ 0.104 µM)
2 | CC[C@H]1OC(=O)[C@H](C)[C@@H](O[C@H]2C[C@@](C)(OC)[C@@H](OC(=O)NCCCCNC(=O)c3ccc(OC)cc3)[C@H](C)O2)[C@H](C)[C@@H](O[C@@H]2O[C@H](C)C[C@H](N(C)C)[C@H]2O)[C@](C)(O)C[C@@H](C)CN(C)[C@H](C)[C@@H](OC(=O)NCCc2ccccc2Cl)[C@]1(C)O | 8 mg/L (≈ 6.79 µM) | 2 mg/L (≈ 1.7 µM) | 64 mg/L (≈ 54.3 µM) | 16 mg/L (≈ 13.6 µM) | 1 mg/L (≈ 0.848 µM) | 4 mg/L (≈ 3.39 µM) | 0.5 mg/L (≈ 0.424 µM) | 8 mg/L (≈ 6.79 µM) | 0.5 mg/L (≈ 0.424 µM) | 2 mg/L (≈ 1.7 µM) | 0.06 mg/L (≈ 0.0509 µM)
3 | CC[C@H]1OC(=O)[C@H](C)[C@@H](O[C@H]2C[C@@](C)(OC)[C@@H](OC(=O)NCCNC(=O)c3cc([N+](=O)[O-])cc([N+](=O)[O-])c3)[C@H](C)O2)[C@H](C)[C@@H](O[C@@H]2O[C@H](C)C[C@H](N(C)C)[C@H]2O)[C@](C)(O)C[C@@H](C)CN(C)[C@H](C)[C@@H](OC(=O)NCCc2ccccc2)[C@]1(C)O | 2 mg/L (≈ 1.7 µM) | 0.5 mg/L (≈ 0.425 µM) | 64 mg/L (≈ 54.4 µM) | 8 mg/L (≈ 6.8 µM) | 4 mg/L (≈ 3.4 µM) | 4 mg/L (≈ 3.4 µM) | 0.12 mg/L (≈ 0.102 µM) | 2 mg/L (≈ 1.7 µM) | 0.06 mg/L (≈ 0.051 µM) | 0.25 mg/L (≈ 0.213 µM) | 0.06 mg/L (≈ 0.051 µM)
4 | CC[C@H]1OC(=O)[C@H](C)[C@@H](O[C@H]2C[C@@](C)(OC)[C@@H](O)[C@H](C)O2)[C@H](C)[C@@H](O[C@@H]2O[C@H](C)C[C@H](N(C)C)[C@H]2O)[C@](C)(O)C[C@@H](C)C(=O)[C@H](C)[C@@H](O)[C@]1(C)O [ERYTHROMYCIN] | 2 mg/L (≈ 2.73 µM) | 0.5 mg/L (≈ 0.681 µM) | 4 mg/L (≈ 5.45 µM) | 0.03 mg/L (≈ 0.0409 µM) | 0.12 mg/L (≈ 0.164 µM) | 0.25 mg/L (≈ 0.341 µM) | 0.06 mg/L (≈ 0.0818 µM) | 256 mg/L (≈ 349 µM) | 8 mg/L (≈ 10.9 µM) | 128 mg/L (≈ 174 µM) | 0.03 mg/L (≈ 0.0409 µM)
5 | CC[C@H]1OC(=O)[C@H](C)[C@@H](O[C@H]2C[C@@](C)(OC)[C@@H](OC(=O)NCCCCNC(=O)c3ccc(OC)cc3)[C@H](C)O2)[C@H](C)[C@@H](O[C@@H]2O[C@H](C)C[C@H](N(C)C)[C@H]2O)[C@](C)(O)C[C@@H](C)CN(C)[C@H](C)[C@@H](OC(=O)NCc2ccc(F)cc2)[C@]1(C)O | 1 mg/L (≈ 0.871 µM) | 8 mg/L (≈ 6.97 µM) | 64 mg/L (≈ 55.7 µM) | 32 mg/L (≈ 27.9 µM) | 8 mg/L (≈ 6.97 µM) | 4 mg/L (≈ 3.48 µM) | 1 mg/L (≈ 0.871 µM) | 16 mg/L (≈ 13.9 µM) | 0.25 mg/L (≈ 0.218 µM) | 4 mg/L (≈ 3.48 µM) | 0.06 mg/L (≈ 0.0522 µM)
6 | CC[C@H]1OC(=O)[C@H](C)[C@@H](O[C@H]2C[C@@](C)(OC)[C@@H](O)[C@H](C)O2)[C@H](C)[C@@H](O[C@@H]2O[C@H](C)C[C@H](N(C)C)[C@H]2O)[C@](C)(OC)C[C@@H](C)C(=O)[C@H](C)[C@@H](O)[C@]1(C)O [CLARITHROMYCIN] | 0.25 mg/L (≈ 0.334 µM) | 0.5 mg/L (≈ 0.668 µM) | 4 mg/L (≈ 5.35 µM) | 0.03 mg/L (≈ 0.0401 µM) | 0.12 mg/L (≈ 0.16 µM) | 0.03 mg/L (≈ 0.0401 µM) | 0.12 mg/L (≈ 0.16 µM) | 128 mg/L (≈ 171 µM) | 4 mg/L (≈ 5.35 µM) | 64 mg/L (≈ 85.6 µM) | 0.03 mg/L (≈ 0.0401 µM)
7 | CC[C@H]1OC(=O)[C@H](C)[C@@H](O[C@H]2C[C@@](C)(OC)[C@@H](OC(=O)NCCCCNC(=O)c3ccc(OC)cc3)[C@H](C)O2)[C@H](C)[C@@H](O[C@@H]2O[C@H](C)C[C@H](N(C)C)[C@H]2O)[C@](C)(O)C[C@@H](C)CN(C)[C@H](C)[C@@H](OC(=O)NCCc2ccc(OC)cc2)[C@]1(C)O | 0.5 mg/L (≈ 0.426 µM) | 4 mg/L (≈ 3.41 µM) | 64 mg/L (≈ 54.5 µM) | 16 mg/L (≈ 13.6 µM) | 1 mg/L (≈ 0.851 µM) | 8 mg/L (≈ 6.81 µM) | 1 mg/L (≈ 0.851 µM) | 8 mg/L (≈ 6.81 µM) | 0.25 mg/L (≈ 0.213 µM) | 2 mg/L (≈ 1.7 µM) | 0.06 mg/L (≈ 0.0511 µM)
8 | CC[C@H]1OC(=O)[C@H](C)[C@@H](O[C@H]2C[C@@](C)(OC)[C@@H](OC(=O)NCCNC(=O)c3ccc(C)cc3)[C@H](C)O2)[C@H](C)[C@@H](O[C@@H]2O[C@H](C)C[C@H](N(C)C)[C@H]2O)[C@](C)(O)C[C@@H](C)CN(C)[C@H](C)[C@@H](OC(=O)NCCc2ccccc2)[C@]1(C)O | 2 mg/L (≈ 1.82 µM) | 2 mg/L (≈ 1.82 µM) | 64 mg/L (≈ 58.2 µM) | 8 mg/L (≈ 7.27 µM) | 2 mg/L (≈ 1.82 µM) | 8 mg/L (≈ 7.27 µM) | 1 mg/L (≈ 0.909 µM) | 8 mg/L (≈ 7.27 µM) | 0.12 mg/L (≈ 0.109 µM) | 2 mg/L (≈ 1.82 µM) | 0.06 mg/L (≈ 0.0545 µM)
